Measurements as given in ChEMBL document CHEMBL1201862, “PubChem BioAssay data set” (2004).
Active and inactive are the calls of the source.

Key:
[1] = target: T1, Voltage-gated N-type calcium channel alpha-1B subunit/Amyloid beta A4 precursor protein-binding family A member 1 (Homo sapiens, UniProt Q00975+Q02410); assay: disruptors of Mint-PDZ/N-type channel peptide interaction – biochemical, HTRF, SAR follow-up (AID 2489); format: functional
[2] = target: T1, Voltage-gated N-type calcium channel alpha-1B subunit/Amyloid beta A4 precursor protein-binding family A member 1; assay: disruptors of Mint-PDZ/N-type channel peptide interaction – biochemical, HTRF, set 2, SAR follow-up (AID 434980); format: functional
[3] = target: T2, Acyl-homoserine lactone acylase PvdQ (Pseudomonas aeruginosa (strain LESB58), UniProt Q9I194); assay: P. aeruginosa PvdQ acylase inhibitors, dose response, biochemical, fluorescence, plate reader and imaging, cherry-picks (AID 493231)
T2 sequence (Q9I194 whole entry): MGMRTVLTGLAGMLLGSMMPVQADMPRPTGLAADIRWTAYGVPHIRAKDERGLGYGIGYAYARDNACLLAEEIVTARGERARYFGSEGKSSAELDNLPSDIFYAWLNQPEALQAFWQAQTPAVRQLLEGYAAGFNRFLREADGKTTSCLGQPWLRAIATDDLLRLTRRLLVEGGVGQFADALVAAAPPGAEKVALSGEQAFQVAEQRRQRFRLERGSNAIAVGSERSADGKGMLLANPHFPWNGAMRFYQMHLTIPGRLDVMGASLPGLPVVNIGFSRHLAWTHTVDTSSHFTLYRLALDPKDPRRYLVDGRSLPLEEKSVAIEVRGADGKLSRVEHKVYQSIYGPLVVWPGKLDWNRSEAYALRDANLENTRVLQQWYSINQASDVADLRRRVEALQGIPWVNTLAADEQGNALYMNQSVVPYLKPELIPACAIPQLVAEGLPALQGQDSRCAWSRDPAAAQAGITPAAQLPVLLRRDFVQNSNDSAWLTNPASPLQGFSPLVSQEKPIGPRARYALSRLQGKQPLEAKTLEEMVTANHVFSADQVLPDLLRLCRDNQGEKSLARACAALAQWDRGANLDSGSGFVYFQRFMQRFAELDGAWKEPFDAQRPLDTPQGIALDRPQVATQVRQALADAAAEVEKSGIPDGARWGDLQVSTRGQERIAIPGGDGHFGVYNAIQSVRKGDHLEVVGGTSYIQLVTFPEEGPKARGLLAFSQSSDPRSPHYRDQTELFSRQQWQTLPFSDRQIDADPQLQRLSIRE

[4] = target: Melanin-concentrating hormone receptor 1 (Homo sapiens, UniProt Q99705); assay: Late-stage fluorescence-based counterscreen for antagonists of the G-protein coupled receptor 7 (GPR7): cell-based dose response assay to identify antagonists of the melanin-concentrating hormone receptor 1 (MCHR1). [Related pubchem assays (depositor defined):AID1861, AID1880, AID1952, AID2148, AID2251, AID2257, AID485339]; format: functional;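 also: stimulated with 30 nM MCH peptide agonist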
Melanin-concentrating hormone receptor 1, sequence (Q99705 whole entry): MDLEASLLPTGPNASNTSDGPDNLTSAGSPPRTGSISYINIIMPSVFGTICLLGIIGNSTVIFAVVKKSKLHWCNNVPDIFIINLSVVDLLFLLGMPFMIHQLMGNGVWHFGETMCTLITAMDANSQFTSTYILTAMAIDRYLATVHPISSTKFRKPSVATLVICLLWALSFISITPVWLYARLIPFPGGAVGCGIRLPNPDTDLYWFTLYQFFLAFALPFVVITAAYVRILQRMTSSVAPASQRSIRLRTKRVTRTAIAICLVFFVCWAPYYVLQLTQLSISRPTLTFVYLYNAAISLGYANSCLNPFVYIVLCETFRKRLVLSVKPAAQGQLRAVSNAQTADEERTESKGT

T1 sequence (Q00975 whole entry): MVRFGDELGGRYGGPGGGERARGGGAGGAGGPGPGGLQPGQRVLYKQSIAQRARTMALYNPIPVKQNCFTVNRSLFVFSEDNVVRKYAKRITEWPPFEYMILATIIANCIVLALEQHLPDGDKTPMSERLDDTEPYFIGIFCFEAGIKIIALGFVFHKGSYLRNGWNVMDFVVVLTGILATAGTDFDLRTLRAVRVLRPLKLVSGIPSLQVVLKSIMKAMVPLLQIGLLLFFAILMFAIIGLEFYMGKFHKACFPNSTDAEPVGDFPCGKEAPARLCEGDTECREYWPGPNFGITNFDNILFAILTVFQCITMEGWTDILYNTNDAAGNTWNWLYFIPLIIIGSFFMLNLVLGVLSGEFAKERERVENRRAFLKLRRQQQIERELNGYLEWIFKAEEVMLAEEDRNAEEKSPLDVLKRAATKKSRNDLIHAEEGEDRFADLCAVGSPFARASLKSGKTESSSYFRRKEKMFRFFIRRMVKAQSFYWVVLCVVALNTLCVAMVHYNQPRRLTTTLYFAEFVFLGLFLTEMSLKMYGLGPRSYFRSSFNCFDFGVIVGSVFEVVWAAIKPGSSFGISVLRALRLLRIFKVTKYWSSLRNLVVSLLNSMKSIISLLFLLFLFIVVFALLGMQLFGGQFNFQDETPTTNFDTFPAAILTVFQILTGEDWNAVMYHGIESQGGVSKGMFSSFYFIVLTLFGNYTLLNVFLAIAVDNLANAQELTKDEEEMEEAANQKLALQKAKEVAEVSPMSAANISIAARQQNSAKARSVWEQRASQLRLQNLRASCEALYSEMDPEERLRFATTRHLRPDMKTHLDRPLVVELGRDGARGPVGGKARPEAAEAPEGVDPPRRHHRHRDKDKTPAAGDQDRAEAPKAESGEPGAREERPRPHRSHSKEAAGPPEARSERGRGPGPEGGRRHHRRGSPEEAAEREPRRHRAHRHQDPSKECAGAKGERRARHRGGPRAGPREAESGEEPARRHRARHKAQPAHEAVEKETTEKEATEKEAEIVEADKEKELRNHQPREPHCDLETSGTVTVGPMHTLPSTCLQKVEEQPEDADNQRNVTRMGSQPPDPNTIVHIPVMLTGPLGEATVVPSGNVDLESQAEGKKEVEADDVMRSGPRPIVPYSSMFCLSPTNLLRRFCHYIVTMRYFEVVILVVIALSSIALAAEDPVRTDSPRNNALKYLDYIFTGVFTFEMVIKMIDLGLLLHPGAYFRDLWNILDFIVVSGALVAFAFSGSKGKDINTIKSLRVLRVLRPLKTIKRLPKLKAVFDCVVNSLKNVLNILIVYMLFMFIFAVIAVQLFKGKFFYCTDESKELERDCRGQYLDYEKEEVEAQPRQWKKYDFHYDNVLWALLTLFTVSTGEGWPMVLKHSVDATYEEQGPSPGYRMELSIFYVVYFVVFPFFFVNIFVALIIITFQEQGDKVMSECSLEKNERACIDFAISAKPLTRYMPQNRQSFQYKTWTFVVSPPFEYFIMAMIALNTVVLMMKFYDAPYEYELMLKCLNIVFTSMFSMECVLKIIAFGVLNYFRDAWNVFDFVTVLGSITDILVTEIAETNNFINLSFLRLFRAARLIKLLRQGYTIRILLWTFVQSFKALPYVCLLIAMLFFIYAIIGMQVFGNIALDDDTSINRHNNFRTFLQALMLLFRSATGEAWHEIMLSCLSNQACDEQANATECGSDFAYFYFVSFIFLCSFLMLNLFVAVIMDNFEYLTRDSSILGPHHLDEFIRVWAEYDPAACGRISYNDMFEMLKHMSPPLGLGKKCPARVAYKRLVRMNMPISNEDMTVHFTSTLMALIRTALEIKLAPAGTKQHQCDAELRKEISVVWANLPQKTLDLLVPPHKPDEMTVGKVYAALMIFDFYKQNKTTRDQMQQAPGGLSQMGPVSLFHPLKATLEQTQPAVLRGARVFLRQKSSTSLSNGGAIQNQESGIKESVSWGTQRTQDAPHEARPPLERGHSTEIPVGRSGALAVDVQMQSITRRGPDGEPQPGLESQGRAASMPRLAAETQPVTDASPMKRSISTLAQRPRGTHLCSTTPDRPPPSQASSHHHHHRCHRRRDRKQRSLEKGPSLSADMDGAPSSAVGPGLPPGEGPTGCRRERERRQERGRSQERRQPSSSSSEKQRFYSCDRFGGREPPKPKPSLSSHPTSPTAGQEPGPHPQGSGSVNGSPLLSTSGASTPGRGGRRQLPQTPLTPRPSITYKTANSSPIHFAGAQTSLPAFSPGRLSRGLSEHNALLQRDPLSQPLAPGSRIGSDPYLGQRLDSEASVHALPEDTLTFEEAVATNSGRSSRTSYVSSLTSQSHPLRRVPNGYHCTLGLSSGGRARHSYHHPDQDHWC
T1 sequence (Q02410 whole entry): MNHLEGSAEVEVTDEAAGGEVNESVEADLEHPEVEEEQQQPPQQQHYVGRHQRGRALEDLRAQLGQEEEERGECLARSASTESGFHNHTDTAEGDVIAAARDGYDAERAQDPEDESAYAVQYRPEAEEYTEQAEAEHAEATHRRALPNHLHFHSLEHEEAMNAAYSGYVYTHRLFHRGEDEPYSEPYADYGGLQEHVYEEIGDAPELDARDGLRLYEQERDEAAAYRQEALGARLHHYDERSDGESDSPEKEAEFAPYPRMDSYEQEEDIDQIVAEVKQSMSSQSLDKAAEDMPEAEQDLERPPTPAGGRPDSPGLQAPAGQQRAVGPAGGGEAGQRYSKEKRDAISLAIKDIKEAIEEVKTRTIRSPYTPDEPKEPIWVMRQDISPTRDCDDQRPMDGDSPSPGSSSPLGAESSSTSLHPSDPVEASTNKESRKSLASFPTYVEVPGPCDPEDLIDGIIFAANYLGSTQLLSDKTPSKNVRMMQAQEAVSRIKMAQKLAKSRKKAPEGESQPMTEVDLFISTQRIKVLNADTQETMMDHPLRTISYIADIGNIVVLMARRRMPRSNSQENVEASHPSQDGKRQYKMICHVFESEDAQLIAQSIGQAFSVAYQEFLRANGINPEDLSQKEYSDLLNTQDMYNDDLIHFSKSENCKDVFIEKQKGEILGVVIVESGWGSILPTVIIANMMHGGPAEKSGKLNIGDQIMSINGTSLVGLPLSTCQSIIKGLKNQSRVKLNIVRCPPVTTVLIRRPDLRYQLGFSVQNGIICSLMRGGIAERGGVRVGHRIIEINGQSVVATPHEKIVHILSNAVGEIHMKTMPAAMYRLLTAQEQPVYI

SMILES	AC50 [3]	IC50 [4]	further results
O=C(c1cc(-c2ccco2)nc2ccccc12)N1CCCC(c2ccccc2)C1 (configuration not stated)	–	–	IC50 [1]: > 56.8 µM (inactive); IC50 [2]: > 56.8 µM (inactive)
Cc1cc(NC(=O)c2ccc([N+](=O)[O-])cc2Cl)no1	> 100 µM (inactive)	–	–
COc1ccc(Oc2c(Cl)cnn(-c3cccc(OC)c3)c2=O)cc1	–	3.4 µM (active)	–
O=C(NC1CCCCC1)c1cc(Cl)ccc1[N+](=O)[O-]	69.3 µM (active)	–	–
COc1ccc(Oc2c(C#N)cnn(-c3ccc(C(C)C)cc3)c2=O)cc1	–	7.5 µM (active)	–
O=CN(c1ccccc1)c1ccc2ccccc2c1	2.68 µM (active)	–	–
